Measurements taken from patent US9751837B2, “Kinase inhibitors” (RESPIVERT LIMITED, priority 2014, dated 2017).
Read-outs that look alike come from different tables or passages of the source. Values belong to the compound of their own block, whether it stands above or below them.

What was measured:
[1] = type: in vivo; conditions: four daily instillations, 0.1 and 1.0 mg/mL, rabbits
[2] = tested on: Escherichia coli, WP2 uvrA; assay: Bacterial reverse mutation screen, Escherichia coli; conditions: presence or absence of S-9 mix, plate incorporation
LPS-stimulated rats = assay: Endotoxin-induced uveitis in rats (vi); type: in vivo, Lewis rats; conditions: rats treated with intravitreal endotoxin LPS
Protocol: Male, Lewis rats (6-8 weeks old, Charles River UK Limited) are housed in cages of 3 at 19-21° C. with a 12 h light/dark cycle (07:00/19:00) and fed a standard diet of rodent chow and water ad libitum. Non-fasted rats are weighed, individually identified on the tail with a permanent marker, and receive a single intravitreal administration into the right vitreous humor (5 μL dose volume) of 100 ng/animal of LPS (Escherichia coli 0111:B4 prepared in PBS, Sigma Aldrich, UK) using a 32-gauge needle. Untreated rats are injected with PBS. Test compound or vehicle (4% polyoxyl 40 stearate, 4% mannitol in PBS (pH 7.4)) are administered by the topical route onto the right eye (10 μL) of animals 1 hour prior to LPS, at the time of LPS administration, and 1, 2 and 4 hours post LPS administration. Before administration, the solution to be administered is sonicated to ensure a clear solution. 6 hours after LPS dosing, animals are euthanized by overdose with pentobarbitone (via cardiac puncture). Immediately after euthanasia, 10 μL of aqueous humor is collected from the right eye of the rats by puncture of the anterior chamber using a 32 gauge needle under a surgical microscope. The aqueous humor is diluted in 20 μL of PBS and total cell counts are measured immediately using a Countess automated cell counter (Invitrogen). […]

[3] = tested on: Salmonella typhimurium, strains TA1535, TA1537, TA98 and TA100; assay: Bacterial reverse mutation screen, Salmonella typhimurium
[4] = Stability of pharmaceutical formulations (HPLC); type: physicochemical; conditions: 1 mg/mL Na and HCl salts in 10 mM pH 7.2 phosphate buffer, 4.5% mannitol, 3% polyoxyl 40 stearate; 5° C.
Protocol: The samples were sonicated to achieve clear solutions having the following properties: Osmolality (mOsm/kg): 310 (Na), 314 (HCl); pH: 7.00 (Na), 7.05 (HCl). 0.5 mL of the stock solutions were diluted to 1 mL with 20% DMSO in water & injected for purity analysis by HPLC. The remaining stock solutions were then split into aliquots of 0.5 mL in HPLC vials, and stored at various conditions in duplicate. Samples were stored at 5 and 25° C., before being analysed by HPLC at 1, 2 and 4 weeks. Separate samples were stored at 40° C. and analysed at 4 weeks.

[5] = Hydrolytic stability study (DMSO/water 3:1, 60° C.); type: physicochemical
Protocol: Chemical stability of compounds of the invention was assessed in a mixture of DMSO and water (3:1) at a test compound concentration of 1 mg/mL.
General HPLC Procedure • Agilent, Waters X-Select C18, 2.5 μm, 4.6×30 mm column, 4 min method, 5-95% MeCN/water (0.1% formic acid). Flow rate 2.5 mL/min. Column Oven Temperature 40° C. Detection 254 nm.
Sample Preparation • A 1.0 mg sample of test compound was dissolved in 750 μL of DMSO. Water (250 μL) was added slowly, ensuring no precipitation occurred.
Recording Stability • A 50 μL aliquot of the test solution was removed and analysed in duplicate by 5 μL HPLC injections. The peak area for the test compound was recorded following manual integration of the corresponding UV trace. • The test solution was heated to 60° C., with stirring, and 50 μL aliquots removed for HPLC analysis at 5 and 24 h timepoints.

p38 MAPKα (MAPK14) = p38 MAPKα (MAPK14) (Homo sapiens (Human), UniProt Q16539); assay: p38 MAPKα enzyme inhibition (Method 2), Z-LYTE FRET; type: biochemical
Sequence of p38 MAPKα (MAPK14) (Q16539 whole entry): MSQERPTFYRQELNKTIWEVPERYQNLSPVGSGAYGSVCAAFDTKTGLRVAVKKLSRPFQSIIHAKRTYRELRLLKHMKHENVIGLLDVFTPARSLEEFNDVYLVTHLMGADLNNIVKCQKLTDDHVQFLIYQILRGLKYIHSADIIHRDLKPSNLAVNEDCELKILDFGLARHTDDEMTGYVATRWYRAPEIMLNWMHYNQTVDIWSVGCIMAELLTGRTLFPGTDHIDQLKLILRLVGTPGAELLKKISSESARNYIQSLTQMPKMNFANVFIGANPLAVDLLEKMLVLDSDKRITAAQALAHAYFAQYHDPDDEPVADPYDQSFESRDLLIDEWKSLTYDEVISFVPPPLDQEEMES
Protocol: (§1) The enzyme inhibitory activities of compounds disclosed herein are determined by FRET using synthetic peptides labelled with both donor and acceptor fluorophores (Z-LYTE, Invitrogen Ltd., Paisley, UK).
The following two assay variants can be used for determination of p38 MAPKα inhibition.
The inhibitory activities of test compounds against the p38 MAPKα isoform (MAPK14: Invitrogen) are evaluated indirectly by determining the level of activation/phosphorylation of the down-stream molecule, MAPKAP-K2. The p38 MAPKα protein (80 ng/mL, 2.5 μL) is mixed with the test compound (2.5 μL of either 4 μg/mL, 0.4 μg/mL, 0.04 μg/mL or 0.004 μg/mL) for 2 hr at RT. […] The mixture is incubated for 1 hr at RT. Development reagent (protease, 5 μL) is added for 1 hr prior to detection in a fluorescence microplate reader (Varioskan® Flash, ThermoFisher Scientific). […]
(§2) In all cases, the site-specific protease cleaves non-phosphorylated peptide only and eliminates the FRET signal. Phosphorylation levels of each reaction are calculated using the ratio of coumarin emission (donor) over fluorescein emission (acceptor), for which high ratios indicate high phosphorylation and low ratios indicate low phosphorylation levels.

c-Src = c-Src (Homo sapiens (Human), UniProt P12931); assay: c-Src enzyme inhibition, Z-LYTE FRET; type: biochemical
Sequence of c-Src (P12931 whole entry, looked up): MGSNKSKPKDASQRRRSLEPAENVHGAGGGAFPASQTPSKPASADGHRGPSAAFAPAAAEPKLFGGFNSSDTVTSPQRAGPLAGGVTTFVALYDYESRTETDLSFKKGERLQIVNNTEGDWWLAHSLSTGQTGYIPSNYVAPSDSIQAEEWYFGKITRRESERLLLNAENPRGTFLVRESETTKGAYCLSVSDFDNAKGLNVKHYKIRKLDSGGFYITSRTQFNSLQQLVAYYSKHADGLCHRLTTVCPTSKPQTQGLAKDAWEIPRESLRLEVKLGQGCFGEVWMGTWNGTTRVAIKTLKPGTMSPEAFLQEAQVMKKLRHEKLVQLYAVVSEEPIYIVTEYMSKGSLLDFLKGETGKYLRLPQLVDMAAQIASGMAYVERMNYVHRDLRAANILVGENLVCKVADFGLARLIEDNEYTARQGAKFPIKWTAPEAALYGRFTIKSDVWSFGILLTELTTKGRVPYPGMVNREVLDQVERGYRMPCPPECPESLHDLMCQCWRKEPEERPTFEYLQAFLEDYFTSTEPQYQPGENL
Protocol: as §1
The inhibitory activities of compounds of the invention against c-Src and Syk enzymes (Invitrogen), are evaluated in a similar fashion to that described hereinabove. The relevant enzyme (3000 ng/mL or 2000 ng/mL respectively, 2.5 μL) is incubated with the test compound (either 1 μg/mL, 0.1 μg/mL, 0.01 μg/mL, or 0.001 μg/mL, 2.5 μL each) for 2 hr at RT. The FRET peptides (8 μM. 2.5 μL), and appropriate ATP solutions (2.5 μL, 800 μM for c-Src, and 60 μM ATP for Syk) are then added to the enzymes/compound mixtures and the mixture incubated for 1 hr. Development reagent (protease, 5 μL) is added for 1 hr prior to detection in a fluorescence microplate reader (Varioskan® Flash, ThermoFisher Scientific).
as §2

[6] = Pharmacokinetics and total colon distribution after single oral administration; type: in vivo, male C57BL/6 mice; conditions: mice, oral 5 mg/kg; for total colon level: measured cpd = dosed cpd (1, 19, 47 as Na salt, 44 as NH4+ salt); for Mean blood concentration: measured cpd = dosed cpd (19, 47 as Na salt)
Protocol: Studies were conducted by Sai Life Sciences (Hinjewadi, Pune, India) to investigate the systemic pharmacokinetics and total colon tissue distribution of compounds of the invention. In particular, pharmacokinetic studies were carried out in male C57BL/6 mice following a single oral administration of the compound.

Syk = Syk (Homo sapiens (Human), UniProt P43405); assay: Syk enzyme inhibition, Z-LYTE FRET; type: biochemical
Protocol: as §1
The relevant enzyme (3000 ng/mL or 2000 ng/mL respectively, 2.5 μL) is incubated with the test compound (either 1 μg/mL, 0.1 μg/mL, 0.01 μg/mL, or 0.001 μg/mL, 2.5 μL each) for 2 hr at RT. […] Development reagent (protease, 5 μL) is added for 1 hr prior to detection in a fluorescence microplate reader (Varioskan® Flash, ThermoFisher Scientific).
as §2

Structure (SMILES): COc1cc(Nc2cc(Oc3ccc(NC(=O)Nc4cc(C(C)(C)C)cc(NS(C)(=O)=O)c4OC)c4ccccc34)ccn2)ccc1C(=O)O [Example 1, 4-((4-((4-(3-(5-(tert-Butyl)-2-methoxy-3-(methylsulfonamido)phenyl)ureido)naphthalen-1-yl)oxy)pyridin-2-yl)amino)-2-methoxybenzoic acid]
local tolerability of the formulations (ocular) ([1]; Phase 1: one treatment day): acceptable
local tolerability of the formulations (ocular) ([1]; Phase 2: three consecutive treatment days): acceptable
mutagenic effects (revertant numbers) [2]: absence of any mutagenic effects
cellular infiltration and cytokine IL-1β levels in anterior and posterior segments of the eyes (LPS-stimulated rats): significantly and dose-dependently reduced
mutagenic effects (revertant numbers) ([3]; TA1535, TA1537, TA98, TA100, presence or absence of S-9 mix, plate incorporation): absence of any mutagenic effects
dose with reduction in the mean colony count (toxicity to the bacteria) ([3]; TA1535, presence of S-9 mix): 1500 μg/plate
limit of solubility in the mutation test ([3]; all strains, presence and absence of S-9 mix, plate incorporation): 1500 μg/plate
stability in solution [4]: stable

decomposition under the conditions of the hydrolytic stability experiment [5]: substantial decomposition
Structure (SMILES): C#Cc1cc(Nc2nccc(Oc3ccc(NC(=O)Nc4cc(C(C)C)nn4-c4ccc(C)cc4)c4ccccc34)n2)cc(C(=O)NCCN2CCOCC2)c1 [Reference Compound B, 3-ethynyl-5-((4-((4-(3-(3-isopropyl-1-(p-tolyl)-1H-pyrazol-5-yl)ureido)naphthalen-1-yl)oxy)pyrimidin-2-yl)amino)-N-(2-morpholinoethyl)benzamide]

IC50 (p38 MAPKα (MAPK14)): 66 nM
IC50 (c-Src): 32 nM
Structure (SMILES): COc1c(NC(=O)Nc2ccc(Oc3ccnc(Nc4ccc(C(=O)NCCN5CCOCC5)cc4)c3)c3ccccc23)cc(C(C)(C)C)cc1NS(C)(=O)=O [17(u), 4-[[4-[[4-[[5-tert-butyl-3-(methanesulfonamido)-2-methoxy-phenyl]carbamoylamino]-1-naphthyl]oxy]-2-pyridyl]amino]-N-(2-morpholinoethyl)benzamide]

IC50 (p38 MAPKα (MAPK14)): 8 nM
IC50 (c-Src): 22 nM
total colon level ([6]; 0.5 h): 0.0 ng/g
Mean blood concentration ([6]; 0.5 h): 0.0 ng/mL
total colon level ([6]; 1 h): 0.0 ng/g
Mean blood concentration ([6]; 1 h): 0.0 ng/mL
total colon level ([6]; 2 h): 0.0 ng/g
Mean blood concentration ([6]; 2 h): 0.0 ng/mL
total colon level ([6]; 4 h): 0.0 ng/g
Mean blood concentration ([6]; 4 h): 0.0 ng/mL
total colon level ([6]; 6 h): 0.0 ng/g
Mean blood concentration ([6]; 6 h): 0.0 ng/mL
total colon level ([6]; 8 h): 0.0 ng/g
Mean blood concentration ([6]; 8 h): 0.0 ng/mL
total colon level ([6]; 12 h): 0.0 ng/g
Mean blood concentration ([6]; 12 h): 0.0 ng/mL
total colon level ([6]; 24 h): 0.0 ng/g
Mean blood concentration ([6]; 24 h): 0.0 ng/mL
IC50 (Syk): 8 nM
Structure (SMILES): COc1cc(Nc2cc(Oc3ccc(NC(=O)Nc4cc(C(C)(C)C)cc(NS(C)(=O)=O)c4OC)c4ccccc34)ccn2)ccc1C(=O)NCCOCCOCCOP(=O)(O)O [Example 19, 2-(2-(2-(4-((4-((4-(3-(5-(tert-Butyl)-2-methoxy-3-(methylsulfonamido)phenyl)ureido)naphthalen-1-yl)oxy)pyridin-2-yl)amino)-2-methoxybenzamido)ethoxy)ethoxy)ethyl dihydrogen phosphate]
